This is an account of results in patent US20230104477A1, “USE OF DEHYDROASCORBIC ACID AGAINST NEMATODE INFECTION IN PLANTS” (Universiteit Gent, priority 2019, published 2023).

One experiment has as its system rice seedlings. In words: Evaluation of seedling growth after drenching rice seedlings. The class given is in vivo, Oryza sativa cv. Nipponbare. The procedure:
(§1) Rice—Seeds of wild-type rice Oryza sativa cv. Nipponbare were obtained from USDA (GSOR-100). Seeds were germinated on wet filter paper for 4-5 days at 30° C. and seedlings were then transferred to SAP-substrate (Sand mixed with Absorbent Polymer AquaPerla®, DCM, Belgium) and further grown at 28° C., under a light regime of (day/night) 12/12. Hoagland solution was given as a source of nutrients 3 times a week.
(§2) Reduced Ascorbic acid (AA, 20 mM), dehydroascorbic acid (DHA, 20 mM), ascorbate oxidase (AO, 20 U/ml), methyl jasmonate (MeJA, 100 μM), aminooxyacetic acid (AoA, 12.5 mM), diethyldithiocarbamic acid (DIECA, 100 μM) and ethephon (100 μM) were purchased from Sigma and dissolved in water (except MeJA that was first dissolved in a drop of ETOH) to attain the indicated concentration.
3-days old rice seedlings were drenched with 1 mL of AA (20 mM), AO (20 U/mL), DHA (20 mM) or water (H2O) as a negative control. Rice root length and dry root weight as well as the number of embryonic crown roots (ECR) were measured 5 days after drenching.

Experiment [1] has as its system root-knot nematode Meloidogyne graminicola. In words: Root growth in rice after foliar spray, nematode-infected conditions (tolerance). Format: in vivo. The conditions noted are these: 14-days old rice, foliar spray 20 mM, 250 nematodes per plant. The procedure:
as §1
(§3) M. graminicola originally isolated in the Philippines (Batangas) was cultured on susceptible rice plants. Second stage juveniles (J2s) were extracted using a sieve/tray extraction method and inoculation was done as described in Nahar et al., (2011). For susceptibility assays, at least two independent experiments were carried out, each time including eight plants per treatment. Twelve days after inoculation (dai), roots were stained using acid fuchsine (Nahar et al., 2011) to count galls and number of nematodes in the roots.
as §2
(§4) For foliar application, all chemicals were dissolved in water and 0.02% (v/v) of Tween20 as a surfactant was added prior to spraying on aerial portions of the rice plants. Control plants were sprayed with distilled water containing 0.02% Tween20. Eight plants per treatment were sprayed until run-off with 6.5 mL of solution (at 24 h prior to nematode inoculation, in cases where infected plants were used). The substrate was covered to avoid direct contact with the roots and/or nematodes.

In experiment [2] the test system is root-knot nematode M. graminicola. In words: Susceptibility assay on rice plants, foliar spray. The class given is in vivo, Meloidogyne graminicola. The conditions noted are these: foliar spray 24 h prior to inoculation (AA 20 mM, DHA 20 mM, AO 20 U/ml); 12 dai; vs control. As to the method: as §3, §2, §4
The nature of experiment [3]: Ascorbate measurements in shoots and roots of foliar sprayed rice. Format: in vivo, Oryza sativa cv. Nipponbare. The conditions noted are these: 24 h after foliar application; vs control plants. As to the method:
as §4
[…] In each assay, 100 mg of crushed material was used per sample, and at least 4 biological replicates were analyzed per treatment. Reduced and oxidized AA were measured according to the method described in Ueda et al., 2013. Absorbance was monitored using a microplate reader (TECAN—Infinite200pro).

Experiment [4] relates to root-knot nematode Meloidogyne graminicola. In words: Susceptibility assay on rice plants, soil drench. The note with it: soil drench 24 h prior to inoculation (AA 20 mM, DHA 20 mM, AO 20 U/mL); twelve days after inoculation; vs control. The class given is in vivo. As to the method: as §3, §2
For soil application, 6.5 mL of each solution was drenched on the substrate, 24 h prior to nematode inoculation.

Another experiment deals with M. graminicola. Description: Infection experiment with JA/ET mutant and biosynthesis inhibitors, foliar spray. The class given is in vivo, Meloidogyne graminicola. The conditions noted are these: 12 days after inoculation. As to the method:
as §3, §2, §4

The test system of another experiment is Heterodera schachtii. Description: Sugar beet tolerance to beet cyst nematode infection after foliar spray. The note with it: 250 H. schachtii per plant. The class given is in vivo. As to the method:
Sugar beet—seeds of cv. Amarok were germinated on moist tissue for 4-5 days at 25° C. For longer experiments seedlings were transplanted to polyvinyl-chloride (PVC) tubes containing fine soil particles. All experiments were conducted in a plant growth room at 25° C., with a 16/8 h day/night regime. The plants were fertilized by supplying Hoagland solution as a source of nutrients 3 times a week.
BNC cysts were obtained from Iran and were maintained on sugar beet (cv. Amarok) plants. Cysts were obtained from stock cultures, by washing the infected soil and letting the cysts to float in water. Full cysts with eggs were hand-picked and allowed to dry before setting up for hatching. For second-stage juveniles (J2) to hatch, cysts were placed in 3 mM of […] and transferred to an incubator/shaker at a temperature of 25.5° C. at 70 rpm for 4 days (Kammerhofer et al., 2015). J2 were re-suspended in water and counted under a stereomicroscope. Around 250-300 J2 nematodes were inoculated per plant. One day before and after inoculation, plants were not supplied with any nutrients or water. To investigate the plant tolerance to BCN infection root length, shoot height, fresh root weight as well as the number of cysts were measured at different time points after spraying and/or inoculation. For all experiments, 8 individual plants were used per treatment.
as §2, §4

The subject of the next experiment is H2O2. Description: H2O2 measurements in roots (xylenol orange method). The conditions noted are these: 20 mM DHA-pretreated plants upon M. graminicola infection, 1 dpi. Format: in vivo, rice. As to the method:
H2O2 measurements—14 days old rice plants were foliar sprayed with 20 mM DHA and 1 day later, plants were inoculated with Meloidogyne graminicola nematodes (Mg+) or mock inoculated (Mg−). One day after inoculation, samples were collected. Root samples were flash-frozen and ground under liquid nitrogen. Per sample, 100 mg of material was used to execute the xylenol orange method for H2O2 quantification described by Cheeseman (2006). After 5% trichloroacetic acid extraction, and 30 minutes reaction with the ferrous ammonium sulphate/xylenol orange (FOX) reagent, the absorbance was measured at 560 nm. The concentration was calculated by comparison with a standard curve of known H2O2 concentrations. The assay was done with 3 biological replicates, which each consisted of pooled material of 4 plants.

The subject of the next experiment is Turnip mosaic virus. The note with it: applied to Brassica rapa plants (Fujiwara et al., 2013); cited from earlier work.
The mark [5] stands for this setting: 3-days old rice seedlings drenched with 1 mL (AA 20 mM, DHA 20 mM, AO 20 U/ml), 5 days after drenching, vs water control.
Setting [6] is: three-weeks old sugar beet, foliar spray (AA 20 mM, AO 20 U/mL, DHA 20 mM), 4 DAS (3 dai).

In the case of `O=C1O[C@H]([C@@H](O)CO)C(=O)C1=O` [DHA, (5R)-5-[(1S)-1,2-dihydroxyethyl]furan-2,3,4(5H)-trione], in the experiment on rice seedlings (setting [5]), the dry root weight entry is listed as “significantly higher”, the “number of embryonic crown roots (ECR)” value is “significantly higher” and the root length entry is reported as “significantly higher”. Also, in the experiment with rice seedlings (rice seedlings drenched with DHA 20 mM), the “general appearance of seedlings” value is reported as “looked more vigorous”. Also, the root length entry in experiment [1] (8 DAS (7 days after inoculation)) is “most significant improved root length”. Besides, the root length result in [1] (12 DAS (11 days after inoculation)) was “most significant improved root length”. In [2], the number of galls result is “significantly lower number of galls” and the number of nematodes entry is “lower number of nematodes”. Also, in experiment [3], the “amount of DHA in shoots” value was “significantly higher amounts of DHA” and the “total ascorbate level in roots” value is on record as “increased”. Besides, in [4], the number of galls entry is reported as “significantly lower number of galls” and the number of nematodes entry was “lower number of nematodes”. In addition, the “reduction in number of galls” value with M. graminicola (Osjarl (JA signalling) mutants sprayed with DHA 20 mM) is listed as 25-30%. The “reduction in number of galls” value with M. graminicola (wild-type Nipponbare sprayed with DHA 20 mM vs unsprayed wild-type) is listed as 50-70%. In addition, the root system development result in the experiment with Heterodera schachtii (foliar spray DHA 20 mM, 43 DAS, vs control) is on record as “better developed root system”. Also, the number of cysts result in the experiment with Heterodera schachtii (foliar spray DHA 20 mM, 43 DAS, vs untreated plants) is given as “significantly lower”. The fresh root weight result in the experiment with Heterodera schachtii (foliar spray, 43 DAS (42 days after inoculation), vs control) is given as “significantly more fresh root weight”. Besides, in the experiment on Heterodera schachtii (setting [6]), the root length entry was “significantly increased”, the root weight result is on record as “significantly increased” and the shoot weight entry is “significantly increased”. Further, in the experiment on Heterodera schachtii (three-weeks old sugar beet, foliar spray (AA 20 mM, AO 20 U/mL, DHA 20 mM), 4 DAS (3 dai), DHA effect not statistically significant), the shoot height entry was “positively influenced”. Also, in the experiment with H2O2, the “H2O2 levels in roots” value was “induced”. The antiviral effect result with Turnip mosaic virus is on record as “antiviral effect”.
